From patent US10221181B2, “6-amino-7-bicyclo-7-deaza-purine derivatives as protein kinase inhibitors” (NERVIANO MEDICAL SCIENCES S.r.l., priority 2014, dated 2019)
Where two headings read alike, the source gives them in different places.

Tests used:
Type in all cases: cell-based
[1] = test system: TT medullary thyroid carcinoma, harboring a mutated RET-C634W receptor; experiment: In vitro cell proliferation assay, TT; conditions: Homo sapiens
Method: (§1) In Vitro Cell Proliferation Assay
(§2) To evaluate the antiproliferative activity of a compound of formula (I) the following human cell lines were used: A2780 ovarian carcinoma; TT medullary thyroid carcinoma, harboring a mutated RET-C634W receptor; LC-2/ad human lung adenocarcinoma, harboring the CCDC6-RET fusion protein. Exponentially growing cells were seeded and incubated at 37° C. in a humidified 5% CO2 atmosphere using appropriate medium supplemented with 10% Fetal Bovine Serum. 24 hours following cell plating, scalar doses of the compounds dissolved in 0.1% DMSO were added to the medium and cells were exposed to drugs for either 72 hours (A2780) or 144 hours (TT and LC-2/ad), according to their different proliferation rate. At the end of treatment, cell proliferation was determined by an intracellular ATP monitoring system (CellTiterGlo—Promega), following manufacturer's instructions, and using an Envision instrument (PerkinElmer) as reader. Data obtained from compound versus vehicle treated cells were compared using Assay Explorer (Symyx Technologies Inc) software. IC50 values were calculated using sigmoidal interpolation curve fitting. In the following Table A the antiproliferative activity of representative compounds of formula (I) on one medullary thyroid carcinoma cell line expressing the aforementioned mutated forms of RET (TT) and on one lung adenocarcinoma cell line harboring the aforementioned fusion form of RET (LC-2/ad) is reported. As control, the antiproliferative activity of the same compounds on an unrelated non RET-dependent cell line (A2780) is reported. All these compounds show remarkable activity on RET-driven cellular models with respect to the unrelated ones.

[2] = test system: A2780 ovarian carcinoma; experiment: In vitro cell proliferation assay, A2780 (non RET-dependent control); conditions: Homo sapiens
Method: as §1, §2

[3] = test system: LC-2/ad human lung adenocarcinoma, harboring the CCDC6-RET fusion protein; experiment: In vitro cell proliferation assay, LC-2/ad
Method: as §1, §2

[4] = antiproliferative activity, 144 hours exposure, CellTiterGlo ATP readout, RET-C634W, read-out: TT IC50
[5] = A2780, antiproliferative activity, 72 hours exposure, CellTiterGlo ATP readout, unrelated non RET-dependent cell line, read-out: A2780 IC50
[6] = antiproliferative activity, 144 hours exposure, CellTiterGlo ATP readout, CCDC6-RET fusion, read-out: LC-2/ad IC50
[7] = A2780, 72 h, read-out: A2780 IC50 (μM)
[8] = 144 h, read-out: LC-2/ad IC50 (μM)

Row | SMILES | IC50 [1, 4] | IC50 [2, 5] | IC50 [3, 6] | IC50 ([1]; 144 h, read-out: TT IC50 (μM)) | IC50 [2, 7] | IC50 [3, 8]
1 | CC(C)n1cc(-c2ccc3c(C(=O)NC4CC4)cccc3c2)c2c(N)ncnc21 [cmpd 1, 6-(4-Amino-7-isopropyl-7H-pyrrolo[2,3-d]pyrimidin-5-yl)-naphthalene-1-carboxylic acid cyclopropylamide] | 0.001 µM | 0.867 µM | 0.003 µM |  |  | 
2 | Nc1ncnc2c1c(-c1ccc3c(C(=O)NC4CC4)cccc3c1)cn2C1CCCC1 [cmpd 3, 6-(4-Amino-7-cyclopentyl-7H-pyrrolo[2,3-d]pyrimidin-5-yl)-naphthalene-1-carboxylic acid cyclopropylamide] | 0.003 µM | 0.385 µM | 0.006 µM |  |  | 
3 | CC(C)n1cc(-c2ccc3c(C(N)=O)cccc3c2)c2c(N)ncnc21 [cmpd 4, 6-(4-Amino-7-isopropyl-7H-pyrrolo[2,3-d]pyrimidin-5-yl)-naphthalene-1-carboxylic acid amide] | 0.017 µM | 2.42 µM | 0.021 µM |  |  | 
4 | CC(C)NC(=O)c1cccc2cc(-c3cn(C(C)C)c4ncnc(N)c34)ccc12 [cmpd 5, 6-(4-Amino-7-isopropyl-7H-pyrrolo[2,3-d]pyrimidin-5-yl)-naphthalene-1-carboxylic acid isopropylamide] |  |  |  | 0.086 µM | 2.94 µM | 0.082 µM
5 | CNC(=O)c1cccc2cc(-c3cn(C(C)C)c4ncnc(N)c34)ccc12 [cmpd 6, 6-(4-Amino-7-isopropyl-7H-pyrrolo[2,3-d]pyrimidin-5-yl)-naphthalene-1-carboxylic acid methylamide] | 0.024 µM | 0.348 µM | 0.049 µM |  |  | 
6 | CC(C)n1cc(-c2ccc3c(C(=O)NCC(F)(F)F)cccc3c2)c2c(N)ncnc21 [cmpd 7, 6-(4-Amino-7-isopropyl-7H-pyrrolo[2,3-d]pyrimidin-5-yl)-naphthalene-1-carboxylic acid (2,2,2-trifluoro-ethyl)-amide] | 0.048 µM | 2.81 µM | 0.046 µM |  |  | 
7 | Nc1ncnc2c1c(-c1ccc3c(C(=O)NC4CC4)cccc3c1)cn2C1CCOCC1 [cmpd 8, 6-[4-Amino-7-(tetrahydro-pyran-4-yl)-7H-pyrrolo[2,3-d]pyrimidin-5-yl]-naphthalene-1-carboxylic acid cyclopropylamide] | 0.009 µM | 0.814 µM | 0.011 µM |  |  | 
8 | CC(C)n1cc(-c2ccc3c(C(=O)Nc4ccc(CN5CCN(C)CC5)c(C(F)(F)F)c4)cccc3c2)c2c(N)ncnc21 [cmpd 10, 6-(4-Amino-7-isopropyl-7H-pyrrolo[2,3-d]pyrimidin-5-yl)-naphthalene-1-carboxylic acid [4-(4-methyl-piperazin-1-ylmethyl)-3-trifluoromethyl-phenyl]-amide] | 0.002 µM | 0.072 µM | 0.008 µM |  |  | 
9 | CC(C)n1cc(-c2ccc3c(C(=O)NC4CCC4)cccc3c2)c2c(N)ncnc21 [cmpd 11, 6-(4-Amino-7-isopropyl-7H-pyrrolo[2,3-d]pyrimidin-5-yl)-naphthalene-1-carboxylic acid cyclobutylamide] | 0.028 µM | 0.961 µM | 0.034 µM |  |  | 
10 | Nc1ncnc2c1c(-c1ccc3c(C(=O)NC4CC4)cccc3c1)cn2C1CCC1 [cmpd 12, 6-(4-Amino-7-cyclobutyl-7H-pyrrolo[2,3-d]pyrimidin-5-yl)-naphthalene-1-carboxylic acid cyclopropylamide] | 0.042 µM | 1.84 µM | 0.051 µM |  |  | 
11 | Nc1ncnc2c1c(-c1ccc3c(C(=O)NC4CC4)cccc3c1)cn2CC1CC1 [cmpd 13, 6-(4-Amino-7-cyclopropylmethyl-7H-pyrrolo[2,3-d]pyrimidin-5-yl)-naphthalene-1-carboxylic acid cyclopropylamide] | 0.007 µM | 0.463 µM | 0.006 µM |  |  | 
12 | CC(C)n1cc(-c2ccc3c(c2)CCN3C(=O)NC2CC2)c2c(N)ncnc21 [cmpd 16, 5-(4-Amino-7-isopropyl-7H-pyrrolo[2,3-d]pyrimidin-5-yl)-2,3-dihydro-indole-1-carboxylic acid cyclopropylamide] |  |  |  | 0.077 µM | 2.19 µM | 0.084 µM
13 | Nc1ncnc2c1c(-c1ccc3c(C(=O)NC4CC4)cccc3c1)cn2C1CCC(F)(F)CC1 [cmpd 30, 6-[4-Amino-7-(4,4-difluoro-cyclohexyl)-7H-pyrrolo[2,3-d]pyrimidin-5-yl]-naphthalene-1-carboxylic acid cyclopropylamide] | 0.03 µM | 2.34 µM | 0.04 µM |  |  | 
